From ChEMBL document CHEMBL3868595, “Plazomicin is effective in a non-human primate pneumonic plague model” (Bioorg Med Chem, 2016)

Tests used:
Yersinia pestis [1] = assay: (§1) Antibacterial activity against Yersinia pestis Colorado 92 infected in African green monkey B6988 model assessed as bacterial burden in brain at 6.25 mg/kg, iv administered within 6 hrs post onset of sustained fever as 30 mins infusion for 5 days (reference value: 1.9 10^6CFU/g); type: functional, CO92
[2] = Clearance in African green monkey blood at 35 mg/kg administered as iv infusion twice daily for 7 consecutive days measured on day 1 by LC-MS/MS analysis; type: ADME, organism-based; settings: chlorocebus aethiops
[3] = Cmax in African green monkey blood at 25 mg/kg administered as iv infusion twice daily for 7 consecutive days measured on day 7 by LC-MS/MS analysis; type: ADME, organism-based; parameters: dose 25 mg/kg, route intravenous; settings: chlorocebus aethiops
Yersinia pestis [4] = assay: as §1, with “B6960” for “B6988”, “tracheobronchial lymph nodes” for “brain”, “7.7 10^9CFU/g)” for “1.9 10^6CFU/g)”; type: functional, CO92, Lymph node
Yersinia pestis [5] = assay: Antibacterial activity against Yersinia pestis Colorado 92 infected in African green monkey B6106 model assessed as bacterial burden in lung at 25 mg/kg, iv administered within 6 hrs post onset of sustained fever as 30 mins infusion for 5 days (reference value: 7.7 10^8CFU/g); type: functional, CO92
Yersinia pestis [6] = assay: Antibacterial activity against Yersinia pestis Colorado 92 infected in African green monkey B6106 model assessed as bacterial burden in heart at 25 mg/kg, iv administered within 6 hrs post onset of sustained fever as 30 mins infusion for 5 days (reference value: 2.6 10^7CFU/g); type: functional, organism-based; settings: CO92
Yersinia pestis [7] = assay: Antibacterial activity against Yersinia pestis Colorado 92 infected in African green monkey B6469 model assessed as bacterial burden in kidney at 25 mg/kg, iv administered within 6 hrs post onset of sustained fever as 30 mins infusion for 5 days (reference value: 7.1 10^7CFU/g); type: functional, organism-based; settings: CO92
African green monkey [8] = assay: Toxicity in African green monkey B6127 model infected with Yersinia pestis Colorado 92 assessed as effect on serum electrolyte abnormality at 25 mg/kg, iv administered within 6 hrs post onset of sustained fever as 30 mins infusion for 10 days; type: organism-based; settings: chlorocebus sabaeus, in vivo
Yersinia pestis [9] = assay: Antibacterial activity against Yersinia pestis Colorado 92 infected in African green monkey B6415 model assessed as bacterial burden in brain at 25 mg/kg, iv administered within 6 hrs post onset of sustained fever as 30 mins infusion for 5 days (reference value: 1.9 10^6CFU/g); type: functional, CO92
Yersinia pestis [10] = assay: (§2) Antibacterial activity against Yersinia pestis Colorado 92 infected in African green monkey B6127 model assessed as bacterial burden in lung at 25 mg/kg, iv administered within 6 hrs post onset of sustained fever as 30 mins infusion for 10 days (reference value: 7.7 10^8CFU/g); type: functional, organism-based; settings: CO92
African green monkey [11] = assay: Toxicity in African green monkey B6291 model infected with Yersinia pestis Colorado 92 assessed as serum gamma glutamyl-transferase level at 25 mg/kg, iv administered within 6 hrs post onset of sustained fever as 30 mins infusion for 10 days (reference value: 77 IU/L); type: organism-based; settings: chlorocebus sabaeus, in vivo
[12] = Toxicity in African green monkey 7337 model infected with Yersinia pestis Colorado 92 assessed as total white blood cell count at 25 mg/kg, iv administered within 6 hrs post onset of sustained fever as 30 mins infusion for 10 days (reference value: 7.5 10^3/microL); type: organism-based; settings: chlorocebus aethiops, in vivo
Yersinia pestis [13] = assay: Antibacterial activity against Yersinia pestis Colorado 92 infected in African green monkey B6988 model assessed as bacterial burden in spleen at 6.25 mg/kg, iv administered within 6 hrs post onset of sustained fever as 30 mins infusion for 5 days (reference value: 1.6 10^9CFU/g); type: functional, CO92
Yersinia pestis [14] = assay: Antibacterial activity against Yersinia pestis Colorado 92 infected in African green monkey assessed as survival of monkey at 6.25 mg/kg, iv administered within 6 hrs post onset of sustained fever as 30 mins infusion for 5 days; type: functional; settings: CO92, iv
[15] = Toxicity in African green monkey B6140 model infected with Yersinia pestis Colorado 92 assessed as total white blood cell count at 25 mg/kg, iv administered within 6 hrs post onset of sustained fever as 30 mins infusion for 10 days (reference value: 6.8 10^3/microL); type: organism-based; settings: chlorocebus aethiops, in vivo
African green monkey [16] = assay: Toxicity in African green monkey 7972 model infected with Yersinia pestis Colorado 92 assessed as blood urea nitrogen level at 25 mg/kg, iv administered within 6 hrs post onset of sustained fever as 30 mins infusion for 10 days (reference value: 13 mg/dl); type: organism-based; settings: chlorocebus sabaeus, in vivo
African green monkey [17] = assay: Toxicity in African green monkey B6127 model infected with Yersinia pestis Colorado 92 assessed as weight loss at 25 mg/kg, iv administered within 6 hrs post onset of sustained fever as 30 mins infusion for 10 days measured from day 7 to 14 post dose; type: organism-based; settings: chlorocebus sabaeus, in vivo
African green monkey [18] = assay: Toxicity in African green monkey 7337 model infected with Yersinia pestis Colorado 92 assessed as serum alanine aminotransferase level at 25 mg/kg, iv administered within 6 hrs post onset of sustained fever as 30 mins infusion for 10 days (reference value: 55 IU/L); type: organism-based; settings: chlorocebus sabaeus, in vivo
Yersinia pestis [19] = assay: Antibacterial activity against Yersinia pestis Colorado 92 infected in African green monkey C2083 model assessed as bacterial burden in heart at 12.5 mg/kg, iv administered within 6 hrs post onset of sustained fever as 30 mins infusion for 5 days (reference value: 2.6 10^7CFU/g); type: functional, CO92
[20] = Toxicity in African green monkey 7653 model infected with Yersinia pestis Colorado 92 assessed as total white blood cell count at 25 mg/kg, iv administered within 6 hrs post onset of sustained fever as 30 mins infusion for 10 days (reference value: 7.5 10^3/microL); type: organism-based; settings: chlorocebus aethiops, in vivo
[21] = Elimination half life in African green monkey blood at 25 mg/kg administered as iv infusion twice daily for 7 consecutive days measured on day 7 by LC-MS/MS analysis; type: ADME, organism-based; settings: chlorocebus aethiops, read-out: beta t1/2 (converted)
Yersinia pestis [22] = assay: Antibacterial activity against Yersinia pestis Colorado 92 infected in African green monkey B6872 model assessed as bacterial burden in spleen at 25 mg/kg, iv administered within 6 hrs post onset of sustained fever as 30 mins infusion for 5 days (reference value: 1.6 10^9CFU/g); type: functional, organism-based; settings: CO92
Yersinia pestis [23] = assay: as §2, with “tracheobronchial lymph nodes” for “lung”, “10^9CFU/g)” for “10^8CFU/g)”; type: functional, organism-based; settings: CO92, Lymph node
African green monkey [24] = assay: Toxicity in African green monkey 7929 model infected with Yersinia pestis Colorado 92 assessed as serum alanine aminotransferase level at 25 mg/kg, iv administered within 6 hrs post onset of sustained fever as 30 mins infusion for 10 days (reference value: 63 IU/L); type: organism-based; settings: chlorocebus sabaeus, in vivo
[25] = Cmax in African green monkey blood at 25 mg/kg administered as iv infusion twice daily for 7 consecutive days measured on day 1 by LC-MS/MS analysis; type: ADME, organism-based; parameters: dose 25 mg/kg, route intravenous; settings: chlorocebus aethiops
[26] = Elimination half life in African green monkey blood at 25 mg/kg administered as iv infusion twice daily for 7 consecutive days measured on day 1 by LC-MS/MS analysis; type: ADME, organism-based; settings: chlorocebus aethiops, read-out: beta t1/2 (converted)
Yersinia pestis [27] = assay: Antibacterial activity against Yersinia pestis Colorado 92 infected in African green monkey B6960 model assessed as bacterial burden in kidney at 6.25 mg/kg, iv administered within 6 hrs post onset of sustained fever as 30 mins infusion for 5 days (reference value: 7.1 10^7CFU/g); type: functional, CO92

Compound CN[C@@H]1[C@@H](O)[C@@H](O[C@@H]2[C@@H](O)[C@H](O[C@H]3OC(CNCCO)=CC[C@H]3N)[C@@H](N)C[C@H]2NC(=O)[C@@H](O)CCN)OC[C@]1(C)O [PLAZOMICIN] has an Activity (Yersinia pestis [1]) of 11 CFU/g, a clearance [2] of 1.67 mL/min/kg and a Cmax [3] of 106 µg/mL. The Activity (Yersinia pestis [4]) was 1.6 ×10⁷ CFU/g, the Activity (Yersinia pestis [5]) was 19 CFU/g and the Activity (Yersinia pestis [6]) was “Below limit of detection”. The Activity (Yersinia pestis [7]) was “Below limit of detection”, the Activity (African green monkey [8]) was “Toxic” and the Activity (Yersinia pestis [9]) was 39 CFU/g. The Activity (Yersinia pestis [10]) was “Below limit of detection”, the Activity (African green monkey [11]) was 102 IU/L and the Activity [12] was 5 ×10³ /uL. For the same compound, the Activity (Yersinia pestis [13]) was 17 CFU/g, the survival at 6.25 mg/kg (Yersinia pestis [14]) was 17% and the Activity [15] was 7.2 ×10³ /uL. The Activity (African green monkey [16]) was 24 mg/dL, the Activity (African green monkey [17]) was “Toxic” and the Activity (African green monkey [18]) was 44 IU/L. It also gave an Activity (Yersinia pestis [19]) of 1.5 ×10⁷ CFU/g, an Activity [20] of 5.8 ×10³ /uL and a half-life [21] of 1.8 h. For the same compound, the Activity (Yersinia pestis [22]) was “Below limit of detection”, the Activity (Yersinia pestis [23]) was “Below limit of detection” and the Activity (African green monkey [24]) was 41 IU/L. The Cmax [25] was 96 µg/mL, the half-life [26] was 1.8 h and the Activity (Yersinia pestis [27]) was 72 CFU/g.
